Source: patent publication US20230276835A1, “SAVORY TASTE ENHANCEMENT VIA TRANSMEMBRANE REGION BINDING” (Firmenich Incorporated, priority 2020, published 2023)

Columns and labels:
[1] = molecular target: T1, T1R1/T1R3 (Homo sapiens, UniProt Q7RTX1); assay: T1R1/T1R3 assay (cells expressing hT1R1 in the presence of hT1R3); type: cell-based
T1 construct: expressed in transfected cells
T1 sequence (Q7RTX1 21-841): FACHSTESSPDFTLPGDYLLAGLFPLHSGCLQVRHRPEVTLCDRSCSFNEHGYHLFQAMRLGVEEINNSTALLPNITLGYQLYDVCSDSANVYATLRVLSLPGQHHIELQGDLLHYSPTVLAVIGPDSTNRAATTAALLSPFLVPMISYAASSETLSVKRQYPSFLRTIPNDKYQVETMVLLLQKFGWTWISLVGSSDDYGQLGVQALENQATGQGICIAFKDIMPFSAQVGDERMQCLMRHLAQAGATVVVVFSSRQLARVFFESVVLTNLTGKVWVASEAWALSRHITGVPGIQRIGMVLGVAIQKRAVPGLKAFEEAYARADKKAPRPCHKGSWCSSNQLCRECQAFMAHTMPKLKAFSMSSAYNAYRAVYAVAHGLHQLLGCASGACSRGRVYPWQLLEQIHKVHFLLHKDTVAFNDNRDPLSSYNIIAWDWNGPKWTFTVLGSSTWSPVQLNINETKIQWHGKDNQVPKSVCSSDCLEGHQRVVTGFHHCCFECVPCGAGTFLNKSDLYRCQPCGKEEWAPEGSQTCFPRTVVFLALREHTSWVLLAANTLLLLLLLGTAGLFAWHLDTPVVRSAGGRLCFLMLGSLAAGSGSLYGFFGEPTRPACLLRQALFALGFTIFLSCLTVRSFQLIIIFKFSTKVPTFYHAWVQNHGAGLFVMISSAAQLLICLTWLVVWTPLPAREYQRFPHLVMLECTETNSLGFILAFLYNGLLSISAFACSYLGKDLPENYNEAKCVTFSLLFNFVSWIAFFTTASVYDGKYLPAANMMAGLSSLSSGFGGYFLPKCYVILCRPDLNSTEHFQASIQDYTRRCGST
T1 sequence (Q7RTX0 21-852 C757R partner): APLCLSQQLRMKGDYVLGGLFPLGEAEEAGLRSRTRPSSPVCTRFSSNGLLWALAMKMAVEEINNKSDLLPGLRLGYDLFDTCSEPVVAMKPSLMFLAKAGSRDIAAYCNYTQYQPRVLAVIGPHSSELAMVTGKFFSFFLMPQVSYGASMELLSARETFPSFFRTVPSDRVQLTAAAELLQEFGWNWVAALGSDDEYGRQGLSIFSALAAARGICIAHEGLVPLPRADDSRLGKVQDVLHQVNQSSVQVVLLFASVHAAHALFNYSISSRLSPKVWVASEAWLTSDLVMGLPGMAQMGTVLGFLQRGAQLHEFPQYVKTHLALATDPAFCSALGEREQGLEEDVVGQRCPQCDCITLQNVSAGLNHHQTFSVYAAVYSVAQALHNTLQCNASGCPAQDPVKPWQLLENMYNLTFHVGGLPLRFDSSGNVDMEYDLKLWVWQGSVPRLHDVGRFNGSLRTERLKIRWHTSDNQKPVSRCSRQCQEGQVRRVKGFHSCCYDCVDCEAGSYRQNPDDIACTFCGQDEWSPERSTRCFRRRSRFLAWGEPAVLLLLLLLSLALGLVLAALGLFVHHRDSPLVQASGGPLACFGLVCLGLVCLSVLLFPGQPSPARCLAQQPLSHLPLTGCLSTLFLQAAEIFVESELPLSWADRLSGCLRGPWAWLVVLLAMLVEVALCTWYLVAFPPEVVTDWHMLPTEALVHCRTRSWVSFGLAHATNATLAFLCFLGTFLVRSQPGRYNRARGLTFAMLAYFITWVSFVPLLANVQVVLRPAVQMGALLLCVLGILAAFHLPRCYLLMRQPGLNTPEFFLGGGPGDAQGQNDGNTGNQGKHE
From the text: To implement the identification of hT1R1-TMD modulators, cells transiently or stably expressing hT1R1 (T1R1) in the presence of hT1R3 (T1R3) are stimulated with library compounds. Similarly, the same compounds are screened in a GTPγS binding assay utilizing membranes expressing transmembrane domain (TMD) of hT1R1 as described in Zhang et al., Proc. Nat'l Acad. Sci., vol. 105, pp. 20930-20934 (2008). Compounds active exclusively active in the two assays are then prioritized and evaluated in sensory for the detection of an umami note on their own and synergy in the presence of MSG or MSG+IMP.
The compound N-(heptan-4-yl)-benzo[d][1,3]dioxole-5-carboxamide (S807) was used as a test compound in a T1R1/T1R3 assay, both alone and in the presence of monosodium glutamate (MSG).
In a similar way, the T1R1/T1R3 assay was used to measure the activity of monosodium glutamate (MSG), inosine 5′monophosphate (IMP), S807, MSG+IMP, 5807+MSG, 5807+IMP, and 5807+MSG+IMP.

[2] = Sensory testing: paired choice of greater umami taste; type: in vivo, human; settings: 16 mM MSG solution vs 4 ppm S807 solution, 32 selections; for number of selections favoring the solution as having greater umami taste: 16 panelists, 2 reps
From the text: Of the 32 selections, 19 favored the MSG solution and 13 favored the S807 solution.

agonist activity on T1R1/T1R3 ([1]; S807 alone, FIG. 2) | enhancement of the MSG effect on T1R1/T1R3 ([1]; in the presence of MSG, FIG. 2) | effect in combination with MSG (percent activity, FIG. 3) ([1]; with MSG) | effect in combination with MSG and IMP (percent activity, FIG. 3) ([1]; with the combination of MSG and IMP) | SMILES | number of selections favoring the solution as having greater umami taste [2] | preference for MSG versus S807 (umami taste) [2]
agonist activity | enhancement properties on the MSG effect | synergistic effect | synergistic effect | CCCC(CCC)NC(=O)c1ccc2c(c1)OCO2 [S807, N-(heptan-4-yl)-benzo[d][1,3]dioxole-5-carboxamide] | 13 | no statistically significant preference
 |  |  |  | N[C@@H](CCC(=O)O)C(=O)[O-].[Na+] [MSG, monosodium glutamate, reference compound] | 19 | 
